{"source": "patent US20250205344A1", "about": "“2,4-DIOXOTETRAHYDROPYRIMIDINYL DERATIVES AS DEGRONS IN PROTACS” (GLAXOSMITHKLINE INTELLECTUAL PROPERTY DEVELOPMENT LIMITED, priority 2022, published 2025)", "target": "T1, Androgen Receptor (Homo sapiens, UniProt P10275, T878A)", "T1 construct": "the AR gene was modified, using CRISPR/Cas9 editing, so the expressed AR protein included an 11 amino acid HiBiT tag; endogenous in cells; host or cells: clonal LnCaP-derived line, AR gene edited by CRISPR/Cas9", "T1 sequence (P10275 whole entry T878A)": "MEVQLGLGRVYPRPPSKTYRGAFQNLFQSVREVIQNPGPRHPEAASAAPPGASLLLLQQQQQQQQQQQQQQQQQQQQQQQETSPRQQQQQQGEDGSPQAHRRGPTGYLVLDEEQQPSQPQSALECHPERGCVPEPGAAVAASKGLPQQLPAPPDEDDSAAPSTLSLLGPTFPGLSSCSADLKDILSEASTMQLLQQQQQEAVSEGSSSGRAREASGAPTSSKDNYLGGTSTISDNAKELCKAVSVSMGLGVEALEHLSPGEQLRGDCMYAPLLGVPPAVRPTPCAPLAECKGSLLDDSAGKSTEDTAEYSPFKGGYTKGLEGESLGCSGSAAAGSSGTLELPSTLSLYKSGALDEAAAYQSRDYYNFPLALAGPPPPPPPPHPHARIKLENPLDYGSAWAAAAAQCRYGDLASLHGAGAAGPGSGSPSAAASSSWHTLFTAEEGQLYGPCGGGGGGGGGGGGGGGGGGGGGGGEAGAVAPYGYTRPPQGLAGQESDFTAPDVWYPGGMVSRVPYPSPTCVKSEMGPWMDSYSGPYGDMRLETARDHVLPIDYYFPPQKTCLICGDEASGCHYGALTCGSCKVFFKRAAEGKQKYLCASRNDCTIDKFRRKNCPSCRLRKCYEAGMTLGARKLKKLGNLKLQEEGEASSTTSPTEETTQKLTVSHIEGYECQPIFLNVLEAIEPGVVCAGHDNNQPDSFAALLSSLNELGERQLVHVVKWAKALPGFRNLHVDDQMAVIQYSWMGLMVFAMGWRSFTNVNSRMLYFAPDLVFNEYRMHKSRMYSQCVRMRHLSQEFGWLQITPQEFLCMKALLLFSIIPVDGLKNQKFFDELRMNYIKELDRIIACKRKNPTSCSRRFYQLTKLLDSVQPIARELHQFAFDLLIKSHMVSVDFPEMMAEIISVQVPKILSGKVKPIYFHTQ", "T1 sequence (Q96SW2 whole entry partner)": "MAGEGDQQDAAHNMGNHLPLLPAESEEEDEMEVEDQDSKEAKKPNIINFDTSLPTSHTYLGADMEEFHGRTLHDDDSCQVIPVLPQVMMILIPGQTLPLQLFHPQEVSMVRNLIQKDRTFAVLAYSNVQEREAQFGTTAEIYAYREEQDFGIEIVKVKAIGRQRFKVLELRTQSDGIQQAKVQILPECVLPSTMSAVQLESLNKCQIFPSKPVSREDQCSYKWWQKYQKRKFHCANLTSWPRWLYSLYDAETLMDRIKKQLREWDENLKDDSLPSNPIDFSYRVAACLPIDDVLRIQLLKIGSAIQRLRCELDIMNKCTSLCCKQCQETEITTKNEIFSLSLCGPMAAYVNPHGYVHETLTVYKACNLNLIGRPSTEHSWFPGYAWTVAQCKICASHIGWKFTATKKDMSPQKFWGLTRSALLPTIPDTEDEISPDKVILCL", "T1 sequence (Q16531 whole entry partner)": "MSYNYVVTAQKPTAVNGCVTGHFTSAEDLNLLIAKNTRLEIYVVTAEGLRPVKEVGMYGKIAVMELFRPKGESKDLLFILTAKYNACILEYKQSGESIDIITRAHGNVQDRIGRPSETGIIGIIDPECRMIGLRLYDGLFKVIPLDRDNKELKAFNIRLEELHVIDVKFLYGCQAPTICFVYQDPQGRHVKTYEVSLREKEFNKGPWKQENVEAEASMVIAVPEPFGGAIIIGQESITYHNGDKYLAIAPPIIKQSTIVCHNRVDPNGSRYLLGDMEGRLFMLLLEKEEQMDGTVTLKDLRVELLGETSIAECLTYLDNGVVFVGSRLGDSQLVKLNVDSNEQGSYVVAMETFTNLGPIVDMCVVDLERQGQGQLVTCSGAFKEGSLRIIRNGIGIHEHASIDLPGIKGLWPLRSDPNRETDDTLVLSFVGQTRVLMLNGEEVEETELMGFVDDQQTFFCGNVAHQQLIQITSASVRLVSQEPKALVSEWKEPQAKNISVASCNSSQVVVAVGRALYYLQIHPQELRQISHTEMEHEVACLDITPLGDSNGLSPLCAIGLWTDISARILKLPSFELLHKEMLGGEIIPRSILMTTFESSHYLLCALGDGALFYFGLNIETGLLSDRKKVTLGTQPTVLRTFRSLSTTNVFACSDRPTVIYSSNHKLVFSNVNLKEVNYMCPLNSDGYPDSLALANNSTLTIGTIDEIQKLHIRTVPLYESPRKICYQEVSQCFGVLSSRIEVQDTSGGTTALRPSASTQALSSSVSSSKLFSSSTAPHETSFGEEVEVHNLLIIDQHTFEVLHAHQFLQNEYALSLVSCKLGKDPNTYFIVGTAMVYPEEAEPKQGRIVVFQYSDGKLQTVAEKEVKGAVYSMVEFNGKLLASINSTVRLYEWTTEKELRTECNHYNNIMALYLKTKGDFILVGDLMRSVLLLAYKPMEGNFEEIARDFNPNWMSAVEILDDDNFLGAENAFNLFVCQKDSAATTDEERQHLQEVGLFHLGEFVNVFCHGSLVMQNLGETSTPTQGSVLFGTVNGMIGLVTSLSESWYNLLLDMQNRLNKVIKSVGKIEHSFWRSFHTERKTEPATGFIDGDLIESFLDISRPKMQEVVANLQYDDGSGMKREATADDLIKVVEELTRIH", "assay": "Androgen Receptor Degradation Assay (Nano-Glo HiBiT)", "type": "cell-based", "settings": "LNCaP, 18 h, HiBiT-tagged AR in human LnCaP cells, read-out: mean asymptote max", "description": "Degradation of Androgen Receptor protein in human LnCaP cells treated with PROTACs was quantified using the Nano-Glo® HiBiT Lytic Detection System (Promega) in 384 well assay plate format. A clonal LnCaP derived cell line was first established in which the AR gene was modified, using CRISPR/Cas9 editing, so the expressed AR protein included an 11 amino acid HiBiT tag at its amino-terminus. 10 mM DMSO stock solutions of PROTACs were prepared and diluted across an 11 concentration, 3 fold increment range, and 25 nL dispensed into a white opaque bottomed 384 well assay plate (Thermofisher) using an acoustic ECHO dispenser (Labcyte). […] For the assay, cells were detached from flask and resuspended with assay medium (FluoroBrite™ DMEM supplemented with 10% heat inactivated FBS, penicillin 50 U/mL and streptomycin 50 ug/mL (Thermofisher)). The cell suspension was centrifuged at 400 g for 5 min and the pellet resuspended in assay medium. 25 μL of cell suspension containing 10,000 cells was dispensed into each well of the assay plate containing the test compounds, which was then incubated for 18 h at 37° C./5% CO2. Control wells were included on each assay plate, with assay medium without cells being the no AR remaining 100% effect control, and cells treated with DMSO vehicle only, without PROTAC, the 0% effect control. 25 μL of Nano-Glo® HiBiT lysis buffer supplemented with LgBiT protein and Nano-Glo® substrate (Promega) was added to each well and the plate shaken at 500 rpm for 10 min at room temperature. The intensity of luminescence was measured using a PHERAstar microplate reader (BMG Labtech) and the % AR protein remaining in each well calculated by normalising the raw luminescence value to the above control wells. Parameters corresponding to the potency and efficacy estimates of the PROTACs were obtained from these normalised luminescence values using software (IDBS ActivityBase). These included the DC50 and the Dmax estimates. Two versions of the DC50, called relative DC50 and absolute DC50, were typically generated. These are the inflection point of a fitted 4 parameter sigmoidal response curve and the interpolated concentration of PROTAC corresponding to 50% of the protein being degraded, respectively. The Dmax parameter was the maximum experimentally observed degradation and the asymptote max parameter the fitted response curve asymptote maximum."}
{"smiles": "C[C@@H]1CN(C(=O)Nc2cnc(N3CCC(CN4CCC(n5ccc6c(N7CCC(=O)NC7=O)cccc65)CC4)CC3)nc2)[C@@H](C)CN1c1ccc(C#N)c(Cl)c1", "note": "(racemic) [EAR114, rac-(trans)-4-(3-Chloro-4-cyanophenyl)-N-(2-(4-((4-(4-(2,4-dioxotetrahydropyrimidin-1(2H)-yl)-1H-indol-1-yl)piperidin-1-yl)methyl)piperidin-1-yl)pyrimidin-5-yl)-2,5-dimethylpiperazine-1-carboxamide]", "values": [{"measurement": "Dmax", "result": "≥ 50", "unit": "%"}]}
{"smiles": "C[C@@H]1CN(c2ccc(C#N)c(Cl)c2)[C@@H](C)CN1C(=O)Nc1ccc(N2CCC(CCN3CCC(n4ccc5c(N6CCC(=O)NC6=O)cccc54)CC3)CC2)nc1", "note": "(racemic) [EAR115, rac-(trans)-4-(3-Chloro-4-cyanophenyl)-N-(6-(4-(2-(4-(4-(2,4-dioxotetrahydropyrimidin-1(2H)-yl)-1H-indol-1-yl)piperidin-1-yl)ethyl)piperidin-1-yl)pyridin-3-yl)-2,5-dimethylpiperazine-1-carboxamide]", "values": [{"measurement": "Dmax", "result": "≥ 50", "unit": "%"}]}
{"smiles": "N#Cc1ccc(O[C@H]2CC[C@H](NC(=O)c3ccc(N4CCC[C@H](CN5CCC(n6ncc7c(N8CCC(=O)NC8=O)cccc76)CC5)C4)nn3)CC2)cc1Cl", "note": "(single isomer, unassigned) [EAR136]", "values": [{"measurement": "Dmax", "result": "≥ 50", "unit": "%"}]}
{"smiles": "N#Cc1ccc(O[C@H]2CC[C@H](NC(=O)c3ccc(N4CCC[C@@H](CN5CCC(n6ncc7c(N8CCC(=O)NC8=O)cccc76)CC5)C4)nn3)CC2)cc1Cl", "note": "(single isomer, unassigned) [EAR137]", "values": [{"measurement": "Dmax", "result": "≥ 50", "unit": "%"}]}
{"smiles": "N#Cc1ccc(O[C@H]2CC[C@H](NC(=O)c3ccc(C4CCN(C(=O)CN5CCC(n6ccc7c(N8CCC(=O)NC8=O)cccc76)CC5)CC4)cc3)CC2)cc1Cl", "note": "[AR1, N-((1r,4r)-4-(3-Chloro-4-cyanophenoxy)cyclohexyl)-4-(1-(2-(4-(4-(2,4-dioxotetrahydropyrimidin-1(2H)-yl)-1H-indol-1-yl)piperidin-1-yl)acetyl)piperidin-4-yl)benzamide]", "values": [{"measurement": "Dmax", "result": "≥ 50", "unit": "%"}]}
{"smiles": "N#Cc1ccc(O[C@H]2CC[C@H](NC(=O)c3cccc(OC4CCN(C(=O)CN5CCC(n6ccc7c(N8CCC(=O)NC8=O)cccc76)CC5)CC4)c3)CC2)cc1Cl", "note": "[AR2, N-((1r,4r)-4-(3-Chloro-4-cyanophenoxy)cyclohexyl)-3-((1-(2-(4-(4-(2,4-dioxotetrahydropyrimidin-1(2H)-yl)-1H-indol-1-yl)piperidin-1-yl)acetyl)piperidin-4-yl)oxy)benzamide]", "values": [{"measurement": "Dmax", "result": "≥ 50", "unit": "%"}]}
{"smiles": "N#Cc1ccc(O[C@H]2CC[C@H](NC(=O)c3cccc(C4CCN(C(=O)CN5CCC(n6ccc7c(N8CCC(=O)NC8=O)cccc76)CC5)CC4)c3)CC2)cc1Cl", "note": "[AR3, N-((1r,4r)-4-(3-Chloro-4-cyanophenoxy)cyclohexyl)-3-(1-(2-(4-(4-(2,4-dioxotetrahydropyrimidin-1(2H)-yl)-1H-indol-1-yl)piperidin-1-yl)acetyl)piperidin-4-yl)benzamide]", "values": [{"measurement": "Dmax", "result": "≥ 50", "unit": "%"}]}
{"smiles": "N#Cc1ccc(O[C@H]2CC[C@H](NC(=O)c3ccc4c(c3)CCN(C(=O)CN3CCC(n5ccc6c(N7CCC(=O)NC7=O)cccc65)CC3)C4)CC2)cc1Cl", "note": "[AR5, N-((1r,4r)-4-(3-Chloro-4-cyanophenoxy)cyclohexyl)-2-(2-(4-(4-(2,4-dioxotetrahydropyrimidin-1(2H)-yl)-1H-indol-1-yl)piperidin-1-yl)acetyl)-1,2,3,4-tetrahydroisoquinoline-6-carboxamide]", "values": [{"measurement": "Dmax", "result": "≥ 50", "unit": "%"}]}
{"smiles": "N#Cc1ccc(O[C@H]2CC[C@H](NC(=O)c3ccc4c(c3)CN(C(=O)CN3CCC(n5ccc6c(N7CCC(=O)NC7=O)cccc65)CC3)C4)CC2)cc1Cl", "note": "[AR6, N-((1r,4r)-4-(3-Chloro-4-cyanophenoxy)cyclohexyl)-2-(2-(4-(4-(2,4-dioxotetrahydropyrimidin-1(2H)-yl)-1H-indol-1-yl)piperidin-1-yl)acetyl)isoindoline-5-carboxamide]", "values": [{"measurement": "Dmax", "result": "≥ 50", "unit": "%"}]}
{"smiles": "N#Cc1ccc(O[C@H]2CC[C@H](NC(=O)c3ccc(N4CCC(N5CCC(n6ccc7c(N8CCC(=O)NC8=O)cccc76)CC5)CC4)nn3)CC2)cc1Cl", "note": "[AR7, N-((1r,4r)-4-(3-Chloro-4-cyanophenoxy)cyclohexyl)-6-(4-(4-(2,4-dioxotetrahydropyrimidin-1(2H)-yl)-1H-indol-1-yl)-[1,4′-bipiperidin]-1′-yl)pyridazine-3-carboxamide]", "values": [{"measurement": "Dmax", "result": "≥ 50", "unit": "%"}]}
{"smiles": "CC1(C)[C@H](NC(=O)c2cnc(N3CCC(CN4CCC(n5ccc6c(N7CCC(=O)NC7=O)cccc65)CC4)CC3)cn2)C(C)(C)[C@H]1Oc1ccc(C#N)c(Cl)c1", "note": "[AR8, N-((1r,3r)-3-(3-Chloro-4-cyanophenoxy)-2,2,4,4-tetramethylcyclobutyl)-5-(4-((4-(4-(2,4-dioxotetrahydropyrimidin-1(2H)-yl)-1H-indol-1-yl)piperidin-1-yl)methyl)piperidin-1-yl)pyrazine-2-carboxamide]", "values": [{"measurement": "Dmax", "result": "≥ 50", "unit": "%"}]}
{"smiles": "N#Cc1ccc(O[C@H]2CC[C@H](NC(=O)c3cnc(N4CCC(CN5CCC(n6ccc7c(N8CCC(=O)NC8=O)cccc76)CC5)CC4)nc3)CC2)cc1Cl", "note": "[AR10, N-((1r,4r)-4-(3-Chloro-4-cyanophenoxy)cyclohexyl)-2-(4-((4-(4-(2,4-dioxotetrahydropyrimidin-1(2H)-yl)-1H-indol-1-yl)piperidin-1-yl)methyl)piperidin-1-yl)pyrimidine-5-carboxamide]", "values": [{"measurement": "Dmax", "result": "≥ 50", "unit": "%"}]}
{"smiles": "N#Cc1ccc(O[C@H]2CC[C@H](NC(=O)c3ccc(N4CCC(CN5CCC(n6ccc7c(N8CCC(=O)NC8=O)cccc76)CC5)CC4)nc3)CC2)cc1C(F)(F)F", "note": "[AR12, N-((1r,4r)-4-(4-Cyano-3-(trifluoromethyl)phenoxy)cyclohexyl)-6-(4-((4-(4-(2,4-dioxotetrahydropyrimidin-1(2H)-yl)-1H-indol-1-yl)piperidin-1-yl)methyl)piperidin-1-yl)nicotinamide]", "values": [{"measurement": "Dmax", "result": "≥ 50", "unit": "%"}]}
{"smiles": "N#Cc1ccc(O[C@H]2CC[C@H](NC(=O)c3cnc(N4CCC(CN5CCC(n6ccc7c(N8CCC(=O)NC8=O)cncc76)CC5)CC4)cn3)CC2)cc1C(F)(F)F", "note": "[AR15, N-((1r,4r)-4-(4-Cyano-3-(trifluoromethyl)phenoxy)cyclohexyl)-5-(4-((4-(4-(2,4-dioxotetrahydropyrimidin-1(2H)-yl)-1H-pyrrolo[2,3-c]pyridin-1-yl)piperidin-1-yl)methyl)piperidin-1-yl)pyrazine-2-carboxamide]", "values": [{"measurement": "Dmax", "result": "≥ 50", "unit": "%"}]}
{"smiles": "N#Cc1ccc(O[C@H]2CC[C@H](NC(=O)c3cnc(N4CCC(CN5CCC(n6ccc7c(N8CCC(=O)NC8=O)cncc76)CC5)CC4)cn3)CC2)cc1Cl", "note": "[AR16, N-((1r,4r)-4-(3-Chloro-4-cyanophenoxy)cyclohexyl)-5-(4-((4-(4-(2,4-dioxotetrahydropyrimidin-1(2H)-yl)-1H-pyrrolo[2,3-c]pyridin-1-yl)piperidin-1-yl)methyl)piperidin-1-yl)pyrazine-2-carboxamide]", "values": [{"measurement": "Dmax", "result": "≥ 50", "unit": "%"}]}
{"smiles": "N#Cc1ccc(O[C@H]2CC[C@H](NC(=O)c3cnc(N4CCC(CN5CCC(n6ccc7c(N8CCC(=O)NC8=O)cncc76)CC5)CC4)nc3)CC2)cc1C(F)(F)F", "note": "[AR17, N-((1r,4r)-4-(4-Cyano-3-(trifluoromethyl)phenoxy)cyclohexyl)-2-(4-((4-(4-(2,4-dioxotetrahydropyrimidin-1(2H)-yl)-1H-pyrrolo[2,3-c]pyridin-1-yl)piperidin-1-yl)methyl)piperidin-1-yl)pyrimidine-5-carboxamide]", "values": [{"measurement": "Dmax", "result": "≥ 50", "unit": "%"}]}
